This is an account of results in US10745401B2, “Condensed lactam derivative” (Sumitomo Dainippon Pharma Co., Ltd., priority 2018, dated 2020).

Data set [1] has as its target T1, human 5-HT1A receptor (Homo sapiens (Human), UniProt P08908). Kind of data set: Test 2: agonist activity for human 5-HT1A receptor ([35S]GTPγS binding). In kind it is biochemical. The settings on record: for Emax at 10 µM: agonist activity in the presence of 10 μM of compound, relative to 100 μmol/L 5-HT. A digest of the protocol: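 [35S]GTPγS binding read-out: after 60 min at room temperature with test compound in GDP buffer, human 5-HT1A receptor CHO membranes were vacuum-filtered and retained radioactivity scintillation-counted. Agonist activity calculated by formula.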

Data set [2] is described as follows: Test 4: metabolic stability test in human hepatic microsome. In kind it is in vitro ADME. The note with it: 0.1 mg/mL microsome, 0.1 μmol/L compound, 37° C., 30 minutes. A digest of the protocol: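 LC-MS quantified remaining parent after 30 min, 37° C, in pH 7.4 25 mmol/L phosphate containing 0.1 mg/mL human hepatic microsomes, 3.2 mmol/L NADPH and 0.1 μmol/L test compound. Value given as −LN(residual ratio)/30/0.1, mL/min/mg protein.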

Data set [3] has as its target T2, human 5-HT2A receptor (Homo sapiens (Human), UniProt P28223). Kind of data set: Test 1: binding activity for human 5-HT2A receptor ([3H]Ketanserin, CHO cell membrane fraction). The protocol: Test 1: Evaluation of Binding Activity for Human 5-HT1A Receptor, Human 5-HT2A Receptor, and Human D2 Receptor
Binding affinity of the present compound for human 5-HT1A receptor, human 5-HT2A receptor, and human D2 receptor was measured by the following procedures.
Each mixture was incubated at room temperature for 60 minutes. Then, the mixture was added quickly on a glassfiber filter plate (Multiscreen FB, Millipore, Inc.) coated with 0.3% aqueous polyethylenimine, and vacuum-filtered. Radioactivity remaining on the filter was measured with a liquid scintillation counter (PerkinElmer, Inc.). Binding inhibition rate was calculated from the following formula.
Ki of each compound was calculated from the following formula. Binding inhibition constant (Ki)=IC50/(1+S/Kd) wherein S is concentration of ligand; Kd is a binding dissociation constant of ligand to membrane, which is calculated from a saturated binding experiment conducted with the same cell membrane. A small Ki value means strong binding ability to a receptor.

The target of the next data set is hERG channel (Homo sapiens (Human), UniProt Q12809). As to the kind of experiment: Test 6-1: inhibitory activity for hERG channel (auto patch clamp, Qpatch). It counts as cell-based. The settings on record: whole cell auto patch clamp, hERG-CHO cells; read-out: hERG inhibition IC50. The gist of the method: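 Whole-cell patch clamp on an automated system using CHO cells stably expressing human hERG (IKr); 15 s pulse interval. Four increasing compound concentrations applied cumulatively; mean peak tail current from last 3 stimulations per concentration used. IC50 from inhibition versus pre-compound current, fitted by Hill equation.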

The target in data set [4] is T2, human 5-HT2A receptor. As to the kind of experiment: Test 3: antagonist activity for human 5-HT2A receptor (aequorin luminescence, CHO-K1 cells). In kind it is cell-based. The settings on record: CHO-K1 cells, 1 nmol/L 5-HT. On the procedure:
Test 3: Evaluation of Antagonist Activity for Human 5-HT2A Receptor
Aequorin, Gα16 protein, and each receptor were transiently expressed in CHO-K1 cells (Chinese hamster ovary). […] Each compound dissolved in DMSO was added thereto, and changes in luminescence were measured by FDSS/μCELL functional drug screening system (Hamamatsu Photonics K.K.). Antagonist activity was calculated from the following formula. Antagonist activity (%)=100×{(Luminescence of well in the presence of 1 nmol/L 5-HT−Luminescence of well containing solvent)−(Luminescence of well in the presence of test compound and 1 nmol/L 5-HT−Luminescence of well containing solvent)}/(Luminescence of well in the presence of 1 nmol/L 5-HT−Luminescence of well containing solvent)

The next data set deals with human D2 receptor (Homo sapiens (Human), UniProt P14416). As to the kind of experiment: Test 1: binding activity for human D2 receptor ([3H]Spiperone, CHO cell membrane fraction). The note with it: human D2 receptor, [3H]Spiperone. The gist of the method: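 Compound displacement of [3H]ketanserin at 5-HT2A or [3H]spiperone at D2 was measured in CHO membrane fractions after 60 min at room temperature, with filtration and scintillation counting. IC50 was converted to Ki by Cheng–Prusoff using ligand concentration and Kd from saturation binding.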

Data set [5] addresses T1, human 5-HT1A receptor. Kind of data set: Test 1: binding activity for human 5-HT1A receptor ([3H]8-OH-DPAT, CHO cell membrane fraction). A digest of the protocol: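 Membranes incubated with [3H]8-OH-DPAT and compound for 60 min at room temperature, then filtered on polyethylenimine-coated glass-fibre plates and counted by liquid scintillation. IC50 from Hill analysis; Ki = IC50/(1+S/Kd), Kd from saturation binding on the same membranes.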

T1 sequence (P08908 whole entry): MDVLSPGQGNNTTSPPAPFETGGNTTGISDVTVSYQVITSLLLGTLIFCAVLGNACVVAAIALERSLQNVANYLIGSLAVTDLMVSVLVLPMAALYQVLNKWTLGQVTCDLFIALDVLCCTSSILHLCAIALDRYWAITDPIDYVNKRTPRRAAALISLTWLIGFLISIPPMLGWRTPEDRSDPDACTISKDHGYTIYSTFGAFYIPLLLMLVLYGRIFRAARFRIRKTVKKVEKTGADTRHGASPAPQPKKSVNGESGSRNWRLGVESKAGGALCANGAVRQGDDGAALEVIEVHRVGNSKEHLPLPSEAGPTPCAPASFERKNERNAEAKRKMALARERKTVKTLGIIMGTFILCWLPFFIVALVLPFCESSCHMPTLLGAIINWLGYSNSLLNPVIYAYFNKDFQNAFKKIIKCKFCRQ
Chain of hERG channel (Q12809 whole entry): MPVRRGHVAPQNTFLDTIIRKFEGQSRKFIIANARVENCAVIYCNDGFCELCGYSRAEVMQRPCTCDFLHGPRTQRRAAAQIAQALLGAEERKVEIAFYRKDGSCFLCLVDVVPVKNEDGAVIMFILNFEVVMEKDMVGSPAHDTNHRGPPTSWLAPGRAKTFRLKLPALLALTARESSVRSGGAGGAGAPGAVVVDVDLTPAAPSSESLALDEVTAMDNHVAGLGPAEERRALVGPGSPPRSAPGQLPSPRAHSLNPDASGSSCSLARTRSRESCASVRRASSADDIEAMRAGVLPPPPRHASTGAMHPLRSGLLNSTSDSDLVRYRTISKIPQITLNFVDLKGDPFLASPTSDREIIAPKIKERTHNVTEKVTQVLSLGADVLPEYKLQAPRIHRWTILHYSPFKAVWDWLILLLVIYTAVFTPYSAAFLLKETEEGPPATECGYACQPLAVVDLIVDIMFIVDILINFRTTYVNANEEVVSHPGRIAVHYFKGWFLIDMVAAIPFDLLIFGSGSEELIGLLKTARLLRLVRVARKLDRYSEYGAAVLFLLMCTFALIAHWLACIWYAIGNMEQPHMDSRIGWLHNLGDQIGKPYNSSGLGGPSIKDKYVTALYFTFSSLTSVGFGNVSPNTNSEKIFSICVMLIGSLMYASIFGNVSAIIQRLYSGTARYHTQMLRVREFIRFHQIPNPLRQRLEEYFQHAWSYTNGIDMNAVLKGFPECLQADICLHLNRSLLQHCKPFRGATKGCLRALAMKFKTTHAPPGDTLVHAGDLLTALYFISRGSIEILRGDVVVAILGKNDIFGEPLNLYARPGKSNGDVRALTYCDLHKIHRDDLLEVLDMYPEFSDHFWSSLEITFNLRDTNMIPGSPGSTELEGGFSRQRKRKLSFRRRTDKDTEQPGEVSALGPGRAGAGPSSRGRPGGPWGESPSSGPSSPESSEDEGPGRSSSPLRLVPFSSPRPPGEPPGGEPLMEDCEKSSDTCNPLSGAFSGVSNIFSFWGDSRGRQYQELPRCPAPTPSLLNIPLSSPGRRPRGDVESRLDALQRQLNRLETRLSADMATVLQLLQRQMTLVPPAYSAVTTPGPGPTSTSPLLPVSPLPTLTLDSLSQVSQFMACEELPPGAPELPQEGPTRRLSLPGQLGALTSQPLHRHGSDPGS
T2 sequence (P28223 whole entry): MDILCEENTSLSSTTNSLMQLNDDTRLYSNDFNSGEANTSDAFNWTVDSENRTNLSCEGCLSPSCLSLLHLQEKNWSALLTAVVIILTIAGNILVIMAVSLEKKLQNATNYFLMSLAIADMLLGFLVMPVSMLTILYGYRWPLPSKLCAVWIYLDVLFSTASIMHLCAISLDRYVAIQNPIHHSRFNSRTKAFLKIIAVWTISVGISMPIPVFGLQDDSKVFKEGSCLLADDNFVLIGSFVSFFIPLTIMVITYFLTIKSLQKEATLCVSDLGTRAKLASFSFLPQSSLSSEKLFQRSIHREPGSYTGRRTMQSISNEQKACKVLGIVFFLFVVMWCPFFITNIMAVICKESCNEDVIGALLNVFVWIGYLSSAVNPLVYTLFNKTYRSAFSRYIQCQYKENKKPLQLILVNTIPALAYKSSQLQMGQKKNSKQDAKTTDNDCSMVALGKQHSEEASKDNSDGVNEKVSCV
Chain of human D2 receptor (P14416 whole entry): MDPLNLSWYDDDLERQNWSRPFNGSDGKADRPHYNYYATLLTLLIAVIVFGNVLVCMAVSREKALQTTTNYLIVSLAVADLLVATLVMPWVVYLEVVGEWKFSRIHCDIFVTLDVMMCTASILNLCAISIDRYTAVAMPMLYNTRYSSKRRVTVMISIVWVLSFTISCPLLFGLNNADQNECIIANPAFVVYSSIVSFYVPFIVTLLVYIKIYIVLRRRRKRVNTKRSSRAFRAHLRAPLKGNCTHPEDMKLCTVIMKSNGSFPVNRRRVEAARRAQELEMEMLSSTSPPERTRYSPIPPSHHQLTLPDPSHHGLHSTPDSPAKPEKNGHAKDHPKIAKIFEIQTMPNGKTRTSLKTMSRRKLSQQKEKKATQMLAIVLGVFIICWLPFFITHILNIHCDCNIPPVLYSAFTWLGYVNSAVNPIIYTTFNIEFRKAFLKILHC

With `O=C1c2cnc(C(F)(F)F)cc2CCN1CCN1CCN(c2nsc3ccccc23)CC1` [Example 110, 2-{2-[4-(1,2-Benzoisothiazol-3-yl)piperazin-1-yl]ethyl}-6-(trifluoromethyl)-3,4-dihydro-2,7-naphthyridin-1(2H)-one], the Emax at 10 µM on human 5-HT1A receptor [1] worked out at 65%. In data set [2], the “Metabolic stability in human hepatic microsome” value (“Metabolic stability” for short) is listed as 0.353 mL/min/mg protein. The Ki on human 5-HT2A receptor [3] came out at 2.6 nM. Also, the concentration for half-maximal inhibition (IC50) is 2400 nM at hERG channel and 42.4 nM against human 5-HT2A receptor [4].

Take `Cn1cc2c(n1)C(=O)N(CCN1CCN(c3nsc4ccccc34)CC1)CCC2` [Example 49]: at human 5-HT1A receptor [1], the Emax at 10 µM came to 64%. Besides, the “Metabolic stability” value in data set [2] is listed as 0.063 mL/min/mg protein. The compound also came in with a Ki at human 5-HT2A receptor [3] of 1.8 nM. For the same compound, the figures for the IC50 on hERG channel and at human 5-HT2A receptor [4] were 5900 nM and 7.02 nM, respectively.

For `Cn1cc2c(n1)CCN(CCN1CCN(c3noc4ccccc34)CC1)C2=O` [Example 81], the Emax at 10 µM at human 5-HT1A receptor [1] came out at 60%. Moreover, the “Metabolic stability” value in data set [2] is listed as less than 0.01 mL/min/mg protein. At human 5-HT2A receptor [3], the Ki stood at 10 nM. In addition, the IC50 was more than 10000 nM at hERG channel and 83 nM at human 5-HT2A receptor [4].

For `O=C1c2ncccc2CCC1CCN1CCN(c2nsc3ccccc23)CC1` (stereo not shown) [Example 25], the Emax at 10 µM at human 5-HT1A receptor [1] turned out to be 57%. Further, in data set [2], the “Metabolic stability” value stood at 0.398 mL/min/mg protein. Besides, the affinity at human 5-HT2A receptor [3] corresponds to a Ki of 3.01 nM. Further, the IC50 came out at 400 nM on hERG channel and 5.54 nM against human 5-HT2A receptor [4].

Take `O=C1c2ncccc2CCC1CCN1CCN(c2noc3ccccc23)CC1` (stereo not shown) [Example 23]: at human 5-HT1A receptor [1], the Emax at 10 µM was found to be 55%. Besides, the “Metabolic stability” value in data set [2] stood at 0.109 mL/min/mg protein. In addition, the affinity at human 5-HT2A receptor [3], expressed as Ki, was 6 nM. The IC50 worked out at 1900 nM at hERG channel and 7.29 nM against human 5-HT2A receptor [4].

For `Cc1cc2c(C3CCN(CCN4CCc5cccnc5C4=O)CC3)noc2cc1F` [Example 6], the Emax at 10 µM at human 5-HT1A receptor [1] amounted to 31%. For the same compound, the “Metabolic stability” value in data set [2] came out at 0.061 mL/min/mg protein. The same compound yielded an inhibition constant Ki at human 5-HT2A receptor [3] of 68 nM. Further, the figures for the half-inhibitory concentration (IC50) at hERG channel and against human 5-HT2A receptor [4] were 2200 nM and 651 nM, respectively.

Take `Cn1ncc2c1CCCC(CCN1CCN(c3nsc4ccccc34)CC1)C2=O` (stereo not shown) [Example 31]: the Emax at 10 µM on human 5-HT1A receptor [1] was 40%. Moreover, the “Metabolic stability” value in data set [2] came out at 0.305 mL/min/mg protein. The same compound displayed an inhibition constant (Ki) on human 5-HT2A receptor [3] of 0.47 nM. For the same compound, the IC50 was found to be 1200 nM at hERG channel and 2.71 nM against human 5-HT2A receptor [4].

Consider `O=C1c2ncccc2CCN1CCN1CCN(c2nsc3ccccc23)CC1` [Example 7], for which the Emax at 10 µM at human 5-HT1A receptor [1] came out at 55%. In data set [2], the “Metabolic stability” value is 0.041 mL/min/mg protein. This compound also displayed a Ki on human 5-HT2A receptor [3] of 2.63 nM. The figures for the IC50 on hERG channel and against human 5-HT2A receptor [4] were 5200 nM and 7.83 nM, respectively.

Regarding `Cc1nc2c(o1)C(=O)N(CCN1CCN(c3nsc4ccccc34)CC1)CCC2` [Example 46], the Emax at 10 µM on human 5-HT1A receptor [1] was 58%. For the same compound, in data set [2], the “Metabolic stability” value came out at 0.018 mL/min/mg protein. The same compound registered a Ki at human 5-HT2A receptor [3] of 2.8 nM. The IC50 at hERG channel was found to be 3700 nM; on human 5-HT2A receptor [4], 52 nM.

`O=c1c2cccnc2ccn1CCN1CCN(c2noc3ccccc23)CC1` [Example 115]: the Emax at 10 µM at human 5-HT1A receptor [1] was found to be 37%. Further, in data set [2], the “Metabolic stability” value is less than 0.05 mL/min/mg protein. Further, the Ki on human 5-HT2A receptor [3] is 1.07 nM; at human D2 receptor, more than 10 µM. Besides, the half-inhibitory concentration (IC50) at hERG channel came to 5000 nM; on human 5-HT2A receptor [4] (aequorin luminescence) it was 4.28 nM.

For `O=c1c2cccnc2ccn1CCN1CCN(c2nsc3ccccc23)CC1` [Example 10], the EC50 on human 5-HT1A receptor [1] ([35S]GTPγS binding, concentration at which half the activity of Emax was obtained) turned out to be 119 nM. Also, the results for the Ki on human 5-HT2A receptor [3] and at human 5-HT1A receptor [5] were 0.49 nM and 20 nM, respectively. For the same compound, on human 5-HT2A receptor [4], it took 0.71 nM to reach half-maximal inhibition (IC50).
